Laboratory results from patent publication US20100029697A1, “SUBSTITUTED PYRIDO[3,2-E][1,2,4]TRIAZOLO[4,3-C]PYRIMIDINE DERIVATIVES AS CANNABINOID-1 RECEPTOR MODULATORS” (priority 2007, published 2010).

Tests used:
[1] = target: recombinant human CB1 receptor (Homo sapiens, UniProt P21554); test: Cannabinoid Receptor-1 (CB1) Binding Assay ([3H]CP-55940 displacement); details: recombinant human CB1 receptor in CHO cell membranes, 0.6 nM [3H]CP-55940
Description: Binding affinity determination is based on recombinant human CB1 receptor expressed in Chinese Hamster Ovary (CHO) cells (Felder et al, Mol. Pharmacol. 48: 443-450, 1995). Total assay volume is 250 μl (240 μl CB1 receptor membrane solution plus 5 μl test compound solution plus 5 μl [3H]CP-55940 solution). Final concentration of [3H]CP-55940 is 0.6 nM. Binding buffer contains 50 mM Tris-HCl, pH7.4, 2.5 mM EDTA, 5 mM MgCl2, 0.5 mg/mL fatty acid free bovine serum albumin and protease inhibitors (Cat#P8340, from Sigma). To initiate the binding reaction, 5 μl of radioligand solution is added, the mixture is incubated with gentle shaking on a shaker for 1.5 h at 30° C. The binding is terminated by using 96-well harvester and filtering through GF/C filter presoaked in 0.05% polyethylenimine. The bound radiolabel is quantitated using scintillation counter. Apparent binding affinities for various compounds are calculated from IC50 values (DeBlasi et al., Trends Pharmacol Sci 10: 227-229, 1989).

[2] = target: recombinant human CB1 receptor expressed in CHO cells (Homo sapiens, UniProt P21554); test: Cannabinoid Receptor-1 (CB1) Functional Activity Assay (intracellular cAMP, forskolin-stimulated CB1-CHO cells); type: cell-based; details: for EC50: cAMP level in CB1-CHO cells with forskolin; for functional mode at CB1 receptor in the CB1 functional activity assay: cAMP readout in CB1-CHO cells
Sequence of recombinant human CB1 receptor expressed in CHO cells (P21554 whole entry): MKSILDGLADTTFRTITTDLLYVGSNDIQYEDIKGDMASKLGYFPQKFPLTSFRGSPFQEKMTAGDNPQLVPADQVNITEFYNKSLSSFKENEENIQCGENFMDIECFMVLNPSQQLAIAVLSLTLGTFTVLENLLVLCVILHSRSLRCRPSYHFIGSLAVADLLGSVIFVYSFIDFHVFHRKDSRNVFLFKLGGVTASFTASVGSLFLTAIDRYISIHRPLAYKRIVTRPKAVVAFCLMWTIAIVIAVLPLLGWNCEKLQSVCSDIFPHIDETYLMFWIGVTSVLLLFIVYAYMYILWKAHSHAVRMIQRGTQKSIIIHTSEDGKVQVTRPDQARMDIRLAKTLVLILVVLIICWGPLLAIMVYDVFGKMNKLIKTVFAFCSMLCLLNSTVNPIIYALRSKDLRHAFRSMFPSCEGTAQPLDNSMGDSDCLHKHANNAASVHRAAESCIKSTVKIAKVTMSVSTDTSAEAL
Description: The functional activation of CB1 receptor is based on recombinant human CB1 receptor expressed in CHO cells (Felder et al, Mol. Pharmacol. 48: 443-450, 1995). To determine the agonist activity or inverse agonist activity of any test compound, 50 ul of CB1-CHO cell suspension are mixed with test compound and 70 ul assay buffer containing 0.34 mM 3-isobutyl-1-methylxanthine and 5.1 uM of forskolin in 96-well plates. The assay buffer is comprised of Earle's Balanced Salt Solution supplemented with 5 mM MgCl2, 1 mM glutamine, 10 mM HEPES, and 1 mg/mL bovine serum albumin. The mixture is incubated at room temperature for 30 minutes, and terminated by adding 30 ul/well of 0.5M HCl. The total intracellular cAMP level is quantitated using the New England Nuclear Flashplate and cAMP radioimmunoassay kit.
To determine the antagonist activity of test compound, the reaction mixture also contains 0.5 nM of the agonist CP55940 (or 50 nM of methanandamide), and the reversal of the CP55940 (or methanandamide) effect is quantitated with increasing concentration of the test compound. Intracellular cAMP is determined as described above. An IC50 value for the test compound is calculated from the titration curve.

Sequence of recombinant human CB1 receptor (P21554 whole entry): as above

Compound | IC50 [1] [nM] | EC50 [2] [nM] | functional mode at CB1 receptor in the CB1 functional activity assay [2]
CC(=O)c1ccc(-c2cc3c(nc2-c2ccccc2Cl)nc(C(C)(C)C)n2c(=O)[nH]nc32)cc1 [Example 9, 9-(4-Acetylphenyl)-5-tert-butyl-8-(2-chlorophenyl)pyrido[3,2-e][1,2,4]triazolo[4,3-c]pyrimidin-3(2H)-one] | 10 | < 100 | functional inverse agonists
CC(C)(C)c1nc2nc(-c3ccccc3Cl)c(-c3ccc(C#N)cc3)cc2c2n[nH]c(=O)n12 [Example 16, 4-[5-Tert-butyl-8-(2-chlorophenyl)-3-oxo-2,3-dihydropyrido[3,2-e][1,2,4]triazolo[4,3-c]pyrimidin-9-yl]benzonitrile] | 6 | < 100 | functional inverse agonists
CC(C)(C)c1nc2nc(-c3ccccc3-c3ccc(F)cc3)c(-c3ccc(F)cc3)cc2c2n[nH]c(=O)n12 [Example 27, 5-Tert-butyl-8-(4′-fluorobiphenyl-2-yl)-9-(4-fluorophenyl)pyrido[3,2-e][1,2,4]triazolo[4,3-c]pyrimidin-3(2H)-one] | 6 | < 100 | functional inverse agonists
CC(C)(C)c1nc2nc(-c3ccccc3Cl)c(-c3ccc(-c4ncon4)cc3)cc2c2n[nH]c(=O)n12 [Example 32, 5-Tert-butyl-8-(2-chlorophenyl)-9-[4-(1,2,4-oxadiazol-3-yl)phenyl]pyrido[3,2-e][1,2,4]-triazolo[4,3-c]pyrimidin-3(2H)-one] | 11 | < 100 | functional inverse agonists

Now those with a lower IC50 [1], led by results:

IC50 [1] [nM] | EC50 [2] [nM] | functional mode at CB1 receptor in the CB1 functional activity assay [2] | Compound
4 | < 100 | functional inverse agonists | CC(C)(C)c1nc2nc(-c3ccc(C#N)cc3C#N)c(-c3ccc(Cl)cc3)cc2c2n[nH]c(=O)n12 [Example 31, 4-[5-Tert-butyl-9-(4-chlorophenyl)-3-oxo-2,3-dihydropyrido[3,2-e][1,2,4]triazolo[4,3-c]pyrimidin-8-yl]isophthalonitrile]
2 | < 100 | functional inverse agonists | CC(C)(C)c1nc2nc(-c3ccccc3Cl)c(-c3ccc(Cl)cc3)cc2c2n[nH]c(=O)n12 [Example 1, 5-Tert-butyl-8-(2-chlorophenyl)-9-(4-chlorophenyl)pyrido[3,2-e][1,2,4]triazolo[4,3-c]pyrimidin-3(2H)-one]
1 | < 100 | functional inverse agonists | CC(C)(C)c1nc2nc(-c3ccc(C#N)cc3Cl)c(-c3ccc(Cl)cc3)cc2c2n[nH]c(=O)n12 [Example 28, 4-[5-Tert-butyl-9-(4-chlorophenyl)-3-oxo-2,3-dihydropyrido[3,2-e][1,2,4]triazolo[4,3-c]pyrimidin-8-yl]-3-chlorobenzonitrile]
